Laboratory results from publication PMC4899283 (Structure (London, England : 1993), 2016).

Legend:
[1] = biological target: T1, full-length bcMalT (EIIB and EIIC domains) (Bacillus cereus, UniProt Q63GK8); assay: scintillation proximity assay, competition with [3H]maltose; assay type: binding; details: 1 μM [3H]maltose, 4 mM LDAO, pH 7.5, 150 mM NaCl, 4 °C; homologous competition
T1 sequence (Q63GK8 1-545): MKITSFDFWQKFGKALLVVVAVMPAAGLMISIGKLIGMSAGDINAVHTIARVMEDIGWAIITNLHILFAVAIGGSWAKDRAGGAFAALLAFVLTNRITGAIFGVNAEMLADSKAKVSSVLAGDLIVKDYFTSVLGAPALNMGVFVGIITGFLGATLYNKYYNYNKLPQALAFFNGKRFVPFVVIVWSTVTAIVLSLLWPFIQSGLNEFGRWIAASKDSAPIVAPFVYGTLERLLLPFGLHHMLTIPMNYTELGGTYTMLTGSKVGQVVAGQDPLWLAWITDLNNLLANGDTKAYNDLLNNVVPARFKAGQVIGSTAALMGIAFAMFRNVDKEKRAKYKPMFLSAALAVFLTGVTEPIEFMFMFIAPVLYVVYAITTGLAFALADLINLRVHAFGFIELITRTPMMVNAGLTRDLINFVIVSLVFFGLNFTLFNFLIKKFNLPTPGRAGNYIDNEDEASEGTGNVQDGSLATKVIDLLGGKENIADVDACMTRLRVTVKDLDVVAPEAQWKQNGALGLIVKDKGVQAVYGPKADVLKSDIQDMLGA

[2] = biological target: T1, full-length bcMalT (EIIB and EIIC domains); assay: as above; assay type: binding; details: 1 μM [3H]maltose, 4 mM LDAO, pH 7.5, 150 mM NaCl, 4 °C

SMILES	IC50 [1] [µM]	binding competition at 500 μM [2]
OC[C@H]1O[C@H](O[C@H]2[C@H](O)[C@@H](O)C(O)O[C@@H]2CO)[C@H](O)[C@@H](O)[C@@H]1O (some centres unmarked) [maltose]	4.5 ± 1.1	
OC[C@H]1O[C@@](CO)(O[C@H]2O[C@H](CO)[C@@H](O)[C@H](O)[C@H]2O)[C@@H](O)[C@@H]1O [sucrose]		No significant binding was observed for a number of other sugars tested, with the exception of sucrose
